Patent US11596639B2, “Substituted indole Mcl-1 inhibitors” (Vanderbilt University, priority 2016, dated 2023)

Columns and labels:
Mcl-1 [1] = target: T1, Mcl-1 (Homo sapiens (Human), UniProt Q07820); test: TR-FRET binding assay, FITC-Bak peptide and MBP-tagged Mcl-1; conditions: read-out: Ki for Inhibition of Mcl-1 by TR-FRET assay
Protocol: Compounds are diluted in DMSO in a 16-point, semilog serial dilution scheme. […] The plate was mixed and incubated for 3 hours at room temperature. […] TR-FRET signal is plotted and IC50 and Ki values are calculated in the same manner as the fluorescence polarization anisotropy based competition assays.

[2] = system: H929 human cancer cell lines; test: Cellular viability / proliferation (Cell TiterGlo, 72 h); format: cell-based; conditions: Homo sapiens, NCI-H929, 72 h, read-out: GI50 on cellular proliferation of H929 human cancer cell lines, H929 cells, 72 h, Cell TiterGlo, 10% FBS
Method in brief: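 Compounds were added as 2-fold serial dilutions from 50 μM (final DMSO <1%) to H929 cells seeded 1,000 per well in 10% FBS medium one day earlier.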

Mcl-1 [3] = target: T1, Mcl-1; test: Fluorescence polarization anisotropy (FPA) competition assay, FITC-Bak or FITC-Bim BH3 peptide; format: binding; conditions: read-out: Ki for Inhibition of Mcl-1 by FPA assay

T1 sequence (Q07820 172-327): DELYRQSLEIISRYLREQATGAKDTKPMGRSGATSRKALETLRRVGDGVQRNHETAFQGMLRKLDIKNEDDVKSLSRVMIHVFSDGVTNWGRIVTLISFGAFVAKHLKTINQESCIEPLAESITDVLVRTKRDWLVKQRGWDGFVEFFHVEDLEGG

SMILES | Ki (Mcl-1 [1]) | GI50 [2] | Ki (Mcl-1 [3])
COCCOc1cc(N2C[C@@H](C)n3c(c(CCCOc4cc(C)c(Cl)c(C)c4)c4ccc(Cl)c(-c5c(C)nn(C)c5C)c43)C2=O)c2c(c1)cc(C(=O)O)n2C [Example 711, (M, R)-7-(7-chloro-10-(3-(4-chloro-3,5-dimethylphenoxy)propyl)-4-methyl-1-oxo-6-(1,3,5-trimethyl-1H-pyrazol-4-yl)-3,4-dihydropyrazino[1,2-a]indol-2(1H)-yl)-5-(2-methoxyethoxy)-1-methyl-1H-indole-2-carboxylic acid] | < 0.2 nM |  | 
Cc1cc(OCCCc2c3n(c4c(-c5c(C)nn(C)c5C)c(Cl)ccc24)[C@H](C)CN(c2ccc4ccc(C(=O)O)nc4c2)C3=O)cc(C)c1Cl [Example 666, (R)-7-(7-chloro-10-(3-(4-chloro-3,5-dimethylphenoxy)propyl)-4-methyl-1-oxo-6-(1,3,5-trimethyl-1H-pyrazol-4-yl)-3,4-dihydropyrazino[1,2-a]indol-2(1H)-yl)quinoline-2-carboxylic acid] | 7.2 nM |  | 
Cc1cc(N2C[C@@H](C)n3c(c(CCCOc4cc(C)c(Cl)c(C)c4)c4ccc(Cl)c(-c5c(C)nn(C)c5C)c43)C2=O)c2c(c1)cc(C(=O)O)n2Cc1ccccn1 [Example 713, (M, R)-7-(7-chloro-10-(3-(4-chloro-3,5-dimethylphenoxy)propyl)-4-methyl-1-oxo-6-(1,3,5-trimethyl-1H-pyrazol-4-yl)-3,4-dihydropyrazino[1,2-a]indol-2(1H)-yl)-5-methyl-1-(pyridin-2-ylmethyl)-1H-indole-2-carboxylic acid] | < 0.2 nM |  | 
Cc1cc(OCCCc2c3n(c4c(-c5c(C)nn(C)c5C)c(Cl)ccc24)[C@H](C)CN(c2cc(N(C)C(=O)CN4CCN(C)CC4)cc4c(C(=O)O)cn(C)c24)C3=O)cc(C)c1Cl [Example 604, (R)-7-(7-chloro-10-(3-(4-chloro-3,5-dimethylphenoxy)propyl)-4-methyl-1-oxo-6-(1,3,5-trimethyl-1H-pyrazol-4-yl)-3,4-dihydropyrazino[1,2-a]indol-2(1H)-yl)-t-methyl-5-(N-methyl-2-(4-methylpiperazin-1-yl)acetamido)-1H-indole-3-carboxylic acid] | 0.73 nM |  | 
Cc1cc(OCCCc2c3n(c4c(-c5c(C)nn(C)c5C)c(Cl)ccc24)[C@H](C)CN(c2cc(CN4CCC(Oc5ccc(Cl)cc5)CC4)cc4c(C(=O)O)cn(C)c24)C3=O)cc(C)c1Cl [Example 547, (R)-7-(7-chloro-10-(3-(4-chloro-3,5-dimethylphenoxy)propyl)-4-methyl-t-oxo-6-(1,3,5-trimethyl-1H-pyrazol-4-yl)-3,4-dihydropyrazino[1,2-a]indol-2(1H)-yl)-5-((4-(4-chlorophenoxy)piperidin-1-yl)methyl)-1-methyl-1H-indole-3-carboxylic acid] | 10 nM |  | 
COCCOc1cc(N2C[C@@H](C)n3c(c(CCCOc4cc(C)c(Cl)c(C)c4)c4ccc(Cl)c(-c5c(C)nn(C)c5C)c43)C2=O)c2c(c1)cc(C(=O)O)n2C [Example 712, (P, R)-7-(7-chloro-10-(3-(4-chloro-3,5-dimethylphenoxy)propyl)-4-methyl-1-oxo-6-(1,3,5-trimethyl-1H-pyrazol-4-yl)-3,4-dihydropyrazino[1,2-a]indol-2(1H)-yl)-5-(2-methoxyethoxy)-1-methyl-1H-indole-2-carboxylic acid] | < 0.2 nM |  | 
Cc1cc(OCCCc2c3n(c4c(-c5c(C)nn(C)c5C)c(Cl)ccc24)[C@H](C)CN(c2cc(N(C)C(=O)CN(C)C)cc4c(C(=O)O)cn(C)c24)C3=O)cc(C)c1Cl [Example 611, (R)-7-(7-chloro-10-(3-(4-chloro-3,5-dimethylphenoxy)propyl)-4-methyl-1-oxo-6-(1,3,5-trimethyl-1H-pyrazol-4-yl)-3,4-dihydropyrazino[1,2-a]indol-2(1H)-yl)-5-(2-(dimethylamino)-N-methylacetamido)-1-methyl-1H-indole-3-carboxylic acid] | 1.1 nM |  | 
Cc1cc(N2C[C@@H](C)n3c(c(CCCOc4cc(C)c(Cl)c(C)c4)c4ccc(Cl)c(-c5c(C)nn(C)c5C)c43)C2=O)c2c(c1)cc(C(=O)O)n2Cc1ccccn1 [Example 714, (P, R)-7-(7-chloro-10-(3-(4-chloro-3,5-dimethylphenoxy)propyl)-4-methyl-1-oxo-6-(1,3,5-trimethyl-1H-pyrazol-4-yl)-3,4-dihydropyrazino[1,2-a]indol-2(1H)-yl)-5-methyl-1-(pyridin-2-ylmethyl)-1H-indole-2-carboxylic acid] | < 0.2 nM |  | 
Cc1cc(OCCCc2c3n(c4c(-c5c(C)nn(C)c5C)c(Cl)ccc24)[C@H](C)CN(c2cc(C(=O)O)c4cn(CCN5CCOCC5)nc4c2)C3=O)cc(C)c1Cl [Example 57, (R)-6-(7-chloro-10-(3-(4-chloro-3,5-dimethylphenoxy)propyl)-4-methyl-1-oxo-6-(1,3,5-trimethyl-1H-pyrazol-4-yl)-3,4-dihydropyrazino[1,2-a]indol-2(1H)-yl)-2-(2-morpholinoethyl)-2H-indazole-4-carboxylic acid] |  | 1700 nM | < 1 nM
Cc1cccnc1Cn1c(C(=O)O)cc2cccc(N3C[C@@H](C)n4c(c(CCCOc5cc(C)c(Cl)c(C)c5)c5ccc(Cl)c(-c6c(C)nn(C)c6C)c54)C3=O)c21 [Example 387, (R)-7-(7-Chloro-10-(3-(4-chloro-3,5-dimethylphenoxy)propyl)-4-methyl-1-oxo-6-(1,3,5-trimethyl-1H-pyrazol-4-yl)-3,4-dihydropyrazino[1,2-a]indol-2(1H)-yl)-1-((3-methylpyridin-2-yl)methyl)-1H-indole-2-carboxylic acid] |  | 3600 nM | 2.1 nM
Cc1cc(OCCCc2c3n(c4c(-c5c(C)nn(C)c5C)c(Cl)ccc24)[C@H](C)CN(c2cccc4c(C(=O)O)cn(Cc5cccnc5)c24)C3=O)cc(C)c1Cl [Example 467, (R)-7-(7-Chloro-10-(3-(4-chloro-3,5-dimethylphenoxy)propyl)-4-methyl-1-oxo-6-(1,3,5-trimethyl-1H-pyrazol-4-yl)-3,4-dihydropyrazino[1,2-a]indol-2(1H)-yl)-1-(pyridin-3-ylmethyl)-1H-indole-3-carboxylic acid] |  | 1300 nM | 1.3 nM
COc1ccc(N2C[C@@H](C)n3c(c(CCCOc4cc(C)c(Cl)c(C)c4)c4ccc(Cl)c(-c5c(C)nn(C)c5C)c43)C2=O)c2c1cc(C(N)=O)n2C [Example 412, (R)-7-(7-Chloro-10-(3-(4-chloro-3,5-dimethylphenoxy)propyl)-4-methyl-1-oxo-6-(1,3,5-trimethyl-1H-pyrazol-4-yl)-3,4-dihydropyrazino[1,2-a]indol-2(1H)-yl)-4-methoxy-1-methyl-1H-indole-2-carboxamide] |  | 450 nM | 1.3 nM
COc1cc(C(=O)O)cc(N2CCCn3c(c(CCCOc4cc(C)c(Cl)c(C)c4)c4ccc(Cl)c(-c5c(C)nn(C)c5C)c43)C2=O)c1OCCCO [Example 67, 3-[8-Chloro-11-[3-(4-chloro-3,5-dimethyl-phenoxy)propyl]-1-oxo-7-(1,3,5-trimethylpyrazol-4-yl)-4,5-dihydro-3H-[1,4]diazepino[1,2-a]indol-2-yl]-4-(3-hydroxypropoxy)-5-methoxy-benzoic acid] |  | 8500 nM | < 1 nM
Cc1cc(OCCCc2c3n(c4c(-c5c(C)nn(C)c5C)c(Cl)ccc24)[C@H](C)CN(c2cccc4cc(C(=O)O)n(Cc5cncnc5)c24)C3=O)cc(C)c1Cl [Example 311, 7-[(4R)-7-chloro-10-[3-(4-chloro-3,5-dimethyl-phenoxy)propyl]-4-methyl-1-oxo-6-(1,3,5-trimethylpyrazol-4-yl)-3,4-dihydropyrazino[1,2-a]indol-2-yl]-1-(pyrimidin-5-ylmethyl)indole-2-carboxylic acid] |  | 3400 nM | < 1 nM
Cc1cc(N2C[C@@H](C)n3c(c(CCCOc4cc(C)c(Cl)c(C)c4)c4ccc(Cl)c(-c5c(C)nn(C)c5C)c43)C2=O)c2c(c1)cc(C(=O)O)n2Cc1ccccn1 [Example 295, 7-[(4R)-7-chloro-10-[3-(4-chloro-3,5-dimethyl-phenoxy)propyl]-4-methyl-1-oxo-6-(1,3,5-trimethylpyrazol-4-yl)-3,4-dihydropyrazino[1,2-a]indol-2-yl]-5-methyl-1-(2-pyridylmethyl)indole-2-carboxylic acid] |  | < 200 nM | < 1 nM
Cc1cc(OCCCc2c3n(c4c(-c5c(C)nn(C)c5C)c(Cl)ccc24)[C@H](C)CN(c2cc4ccc(C(=O)O)cc4n2C)C3=O)cc(C)c1Cl [Example 180, 2-[(4R)-7-chloro-10-[3-(4-chloro-3,5-dimethyl-phenoxy)propyl]-4-methyl-1-oxo-6-(1,3,5-trimethylpyrazol-4-yl)-3,4-dihydropyrazino[1,2-a]indol-2-yl]-1-methyl-indole-6-carboxylic acid] |  | 1500 nM | 2.1 nM
Cc1cc(OCCCc2c3n(c4c(-c5c(C)nn(C)c5C)c(Cl)ccc24)[C@H](C)CN(c2cn(COCC[Si](C)(C)C)c4ccc(C(=O)O)cc24)C3=O)cc(C)c1Cl [Example 231, (R)-3-(7-Chloro-10-(3-(4-chloro-3,5-dimethylphenoxy)propyl)-4-methyl-1-oxo-6-(1,3,5-trimethyl-1H-pyrazol-4-yl)-3,4-dihydropyrazino[1,2-a]indol-2(1H)-yl)-1-((2-(trimethylsilyl)ethoxy)methyl)-1H-indole-5-carboxylic acid] |  | 2700 nM | 1.2 nM
